Test results as given in US12679807B2 (MERCK SHARP & DOHME LLC, priority 2020, dated 2026).

The compounds below were run against T1, GCS enzyme contained within Golgi preparations isolated from human A375 malignant melanoma skin cells (Homo sapiens, UniProt Q16739) (assay: UDP-Glo glucosylceramide synthase biochemical assay). Details: crude Golgi preparation from A375 cells; C6 ceramide and UDP-glucose substrates; 20 h incubation at room temperature; UDP detected by luminescence.
T1 construct: endogenous levels of GCS enzyme contained within Golgi preparations isolated from human A375 malignant melanoma skin cells; endogenous in cells; host or cells: A375 human malignant melanoma cells (crude Golgi preparation)
T1 sequence (Q16739 1-394): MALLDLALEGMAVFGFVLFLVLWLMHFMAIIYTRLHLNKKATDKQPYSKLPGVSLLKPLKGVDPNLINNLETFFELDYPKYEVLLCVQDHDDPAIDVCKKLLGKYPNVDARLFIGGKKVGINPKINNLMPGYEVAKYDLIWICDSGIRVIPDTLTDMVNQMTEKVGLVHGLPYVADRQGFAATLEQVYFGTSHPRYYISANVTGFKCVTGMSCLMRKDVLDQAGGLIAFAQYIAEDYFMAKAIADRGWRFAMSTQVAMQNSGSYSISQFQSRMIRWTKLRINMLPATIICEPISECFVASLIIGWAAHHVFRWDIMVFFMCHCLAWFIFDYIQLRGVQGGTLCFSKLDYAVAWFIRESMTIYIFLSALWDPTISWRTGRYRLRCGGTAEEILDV
Outline: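 Endogenous enzyme in A375 Golgi preparations (1.5 μg total protein) was preincubated 30 min with compound, then reacted 20 h at room temperature with UDP-glucose and ceramide.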

Structure (SMILES)	EC50
Cc1cc(-c2ccc(-c3cc(F)cc4c3C(=O)N([C@H](C3CC3)C(C)(C)O)C4)cc2)on1 [Compound 26, (R)-2-(1-cyclopropyl-2-hydroxy-2-methylpropyl)-5-fluoro-7-(4-(3-methylisoxazol-5-yl)phenyl)isoindolin-1-one]	1 nM
Cc1nnc(-c2ccc(-c3cc(F)cc4c3C(=O)N([C@H](C3CC3)C(C)(C)O)C4)c(F)c2)o1 [Compound 27, (R)-2-(1-cyclopropyl-2-hydroxy-2-methylpropyl)-5-fluoro-7-(2-fluoro-4-(5-methyl-1,3,4-oxadiazol-2-yl)phenyl)isoindolin-1-one]	1.4 nM
Cc1cc(-c2ccnc3c2C(=O)N([C@H](C2CC2)C(C)(C)O)C3)c(F)cc1-c1cnn(C)c1 [Compound 35, (R)-6-(1-cyclopropyl-2-hydroxy-2-methylpropyl)-4-(2-fluoro-5-methyl-4-(1-methyl-1H-pyrazol-4-yl)phenyl)-6,7-dihydro-5H-pyrrolo[3,4-b]pyridin-5-one]	6.8 nM
Cc1nnc(-c2ccc(-c3c(F)cc(Cl)c4c3C(=O)N([C@H](C3CC3)C(C)(C)O)C4)cc2)o1 [Compound 41, (R)-4-chloro-2-(1-cyclopropyl-2-hydroxy-2-methylpropyl)-6-fluoro-7-(4-(5-methyl-1,3,4-oxadiazol-2-yl)phenyl)isoindolin-1-one]	0.25 nM
C[C@@H](N1Cc2cccc(-c3ccccc3OCC(F)(F)F)c2C1=O)C(C)(C)O [Compound 46, (R)-2-(3-hydroxy-3-methylbutan-2-yl)-7-(2-(2,2,2-trifluoroethoxy)phenyl) isoindolin-1-one]	140 nM
CC[C@@H](N1Cc2cccc(-c3ccc(-c4nnc(C)o4)cc3)c2C1=O)C(C)(C)O [Compound 48, 2-[(1R)-1-ethyl-2-hydroxy-2-methyl-propyl]-7-[4-(5-methyl-1,3,4-oxadiazol-2-yl)phenyl]isoindolin-1-one]	81 nM
O=C1c2c(cccc2-c2ccccc2OCC(F)(F)F)CN1[C@@H](CO)C1CC1 [Compound 49, (R)-2-(1-cyclopropyl-2-hydroxyethyl)-7-(2-(2,2,2-trifluoroethoxy)phenyl) isoindolin-1-one]	92 nM
Cc1nnc(-c2ccc(-c3cccc4c3C(=O)N([C@@H](CO)C3CC3)C4)cc2)o1 [Compound 50, (R)-2-(1-cyclopropyl-2-hydroxyethyl)-7-(4-(5-methyl-1,3,4-oxadiazol-2-yl)phenyl)isoindolin-1-one]	630 nM
Cc1nn(C)c2ccc(-c3c(F)ccc4c3C(=O)N([C@H](C3CC3)C(C)(C)O)C4)cc12 [Compound 55, (R)-2-(1-cyclopropyl-2-hydroxy-2-methylpropyl)-7-(1,3-dimethyl-1H-indazol-5-yl)-6-fluoroisoindolin-1-one]	0.18 nM
Cc1nn(C)c2ccc(-c3ccc(F)c4c3C(=O)N([C@H](C3CC3)C(C)(C)O)C4)cc12 [Compound 56, (R)-2-(1-cyclopropyl-2-hydroxy-2-methylpropyl)-7-(1,3-dimethyl-1H-indazol-5-yl)-4-fluoroisoindolin-1-one]	0.43 nM
COC(C)(C)[C@@H](C1CC1)N1Cc2cccc(-c3ccc(-c4nnc(C)o4)cc3)c2C1=O [Compound 57, (R)-2-(1-cyclopropyl-2-methoxy-2-methylpropyl)-7-(4-(5-methyl-1,3,4-oxadiazol-2-yl)phenyl)isoindolin-1-one]	260 nM
Cc1nnc(-c2ccc(-c3c(F)cc(O)c4c3C(=O)N([C@H](C3CC3)C(C)(C)O)C4)cc2)o1 [Compound 59, (R)-2-(1-cyclopropyl-2-hydroxy-2-methylpropyl)-6-fluoro-4-hydroxy-7-(4-(5-methyl-1,3,4-oxadiazol-2-yl)phenyl) isoindolin-1-one]	9.9 nM
Cc1cc2c(c(-c3ccc(-c4nnc(C)o4)cc3)c1)C(=O)N([C@H](C1CC1)C(C)(C)O)C2 [Compound 61, (R)-2-(1-Cyclopropyl-2-hydroxy-2-methylpropyl)-5-methyl-7-(4-(5-methyl-1,3,4-oxadiazol-2-yl)phenyl)isoindolin-1-one]	8.9 nM
Cc1nnc(-c2ccc(-c3cccc4c3C(=O)N([C@H](C3CC3)C(C)(C)O)C4)cn2)o1 [Compound 65, (R)-2-(1-cyclopropyl-2-hydroxy-2-methylpropyl)-7-(6-(5-methyl-1,3,4-oxadiazol-2-yl)pyridin-3-yl)isoindolin-1-one]	150 nM
Cc1nnc(-c2ncc(-c3cccc4c3C(=O)N([C@H](C3CC3)C(C)(C)O)C4)cc2F)o1 [Compound 66, (R)-2-(1-cyclopropyl-2-hydroxy-2-methylpropyl)-7-(5-fluoro-6-(5-methyl-1,3,4-oxadiazol-2-yl)pyridin-3-yl)isoindolin-1-one]	500 nM
COc1cc(-c2cccc3c2C(=O)N([C@H](C2CC2)C(C)(C)O)C3)ccc1-c1nnc(C)o1 [Compound 67, (R)-2-(1-cyclopropyl-2-hydroxy-2-methylpropyl)-7-(3-methoxy-4-(5-methyl-1,3,4-oxadiazol-2-yl)phenyl)isoindolin-1-one]	12 nM
Cc1nnc(-c2ccc(-c3cccc4c3C(=O)N([C@H](C3CC3)C(C)(C)O)C4)c(F)c2)o1 [Compound 68, (R)-2-(1-cyclopropyl-2-hydroxy-2-methylpropyl)-7-(2-fluoro-4-(5-methyl-1,3,4-oxadiazol-2-yl)phenyl)isoindolin-1-one]	3.5 nM
CC(C)(O)[C@@H](C1CC1)N1Cc2cccc(-c3ccc(-n4ccnn4)cc3)c2C1=O [Compound 69, (R)-7-(4-(1H-1,2,3-triazol-1-yl)phenyl)-2-(1-cyclopropyl-2-hydroxy-2-methylpropyl)isoindolin-1-one]	110 nM
Cc1nnc(-c2cc(F)c(-c3cccc4c3C(=O)N([C@H](C3CC3)C(C)(C)O)C4)cc2C)o1 [Compound 70, (R)-2-(1-cyclopropyl-2-hydroxy-2-methylpropyl)-7-(2-fluoro-5-methyl-4-(5-methyl-1,3,4-oxadiazol-2-yl)phenyl)isoindolin-1-one]	0.81 nM
Cc1nnc(-c2ccc(-c3cccc4c3C(=O)N([C@H](C3CC3)C(C)(C)O)C4)cc2C)o1 [Compound 71, (R)-2-(1-cyclopropy1-2-hydroxy-2-methylpropyl)-7-(3-methyl-4-(5-methyl-1,3,4-oxadiazol-2-yl)phenyl)isoindolin-1-one]	0.84 nM

Continued, values first:

EC50	Structure (SMILES)
200 nM	Cn1cc(-c2ccc(-c3nccc4c3C(=O)N([C@H](C3CC3)C(C)(C)O)C4)cc2)cn1 [Compound 29, (R)-2-(1-cyclopropyl-2-hydroxy-2-methylpropyl)-4-(4-(1-methyl-1H-pyrazol-4-yl)phenyl)-1,2-dihydro-3H-pyrrolo[3,4-c]pyridin-3-one]
57 nM	Cn1cc(-c2ccc(-c3cncc4c3C(=O)N([C@H](C3CC3)C(C)(C)O)C4)cc2)cn1 [Compound 32, (R)-2-(1-cyclopropyl-2-hydroxy-2-methylpropyl)-7-(4-(1-methyl-1H-pyrazol-4-yl)phenyl)-2,3-dihydro-1H-pyrrolo[3,4-c]pyridin-1-one]
48 nM	Cn1cc(-c2ccc(-c3ccnc4c3C(=O)N([C@H](C3CC3)C(C)(C)O)C4)cc2)cn1 [Compound 34, (R)-6-(1-cyclopropyl-2-hydroxy-2-methylpropyl)-4-(4-(1-methyl-1H-pyrazol-4-yl)phenyl)-6,7-dihydro-5H-pyrrolo[3,4-b]pyridin-5-one]
0.24 nM	Cn1cc(-c2ccc(-c3ccc(Cl)c4c3C(=O)N([C@H](C3CC3)C(C)(C)O)C4)cc2)cn1 [Compound 37, (R)-4-chloro-2-(1-cyclopropyl-2-hydroxy-2-methylpropyl)-7-(4-(1-methyl-1H-pyrazol-4-yl)phenyl)isoindolin-1-one]
0.55 nM	Cc1nnc(-c2ccc(-c3ccc(Cl)c4c3C(=O)N([C@H](C3CC3)C(C)(C)O)C4)cc2)o1 [Compound 38, (R)-4-chloro-2-(1-cyclopropyl-2-hydroxy-2-methylpropyl)-7-(4-(5-methyl-1,3,4-oxadiazol-2-yl)phenyl)isoindolin-1-one]
0.98 nM	Cc1nnc(-c2ccc(-c3c(Cl)ccc4c3C(=O)N([C@H](C3CC3)C(C)(C)O)C4)cc2)o1 [Compound 40, (R)-6-chloro-2-(1-cyclopropyl-2-hydroxy-2-methylpropyl)-7-(4-(5-methyl-1,3,4-oxadiazol-2-yl)phenyl)isoindolin-1-one]
28 nM	Cc1nnc(-c2ccc(-c3ccc(O)c4c3C(=O)N([C@H](C3CC3)C(C)(C)O)C4)cc2)o1 [Compound 58, (R)-2-(1-Cyclopropyl-2-hydroxy-2-methylpropyl)-4-hydroxy-7-(4-(5-methyl-1,3,4-oxadiazol-2-yl)phenyl)isoindolin-1-one]
9.4 nM	Cn1cc(-c2ccc(-c3ccc(O)c4c3C(=O)N([C@H](C3CC3)C(C)(C)O)C4)cc2)cn1 [Compound 60, (R)-2-(1-cyclopropyl-2-hydroxy-2-methylpropyl)-4-hydroxy-7-(4-(1-methyl-1H-pyrazol-4-yl)phenyl) isoindolin-1-one]
180 nM	Cc1cnc(-c2ccc(-c3cccc4c3C(=O)N([C@H](C3CC3)C(C)(C)O)C4)cc2)o1 [Compound 64, (R)-2-(1-Cyclopropyl-2-hydroxy-2-methylpropyl)-7-(4-(5-methyloxazol-2-yl)phenyl)isoindolin-1-one]
